Where two headings read alike, the source gives them in different places.
Experiments:
[1] = tested on: voltage-gated calcium ion channels; assay: ChemFET sensor array: 30 mM KCl depolarizing stimulus in presence of calcium channel blocker, control vs transfected U-2OS cells; assay type: cell-based; conditions: 10 μM, U-2OS control cells vs U-2OS transfected with voltage-gated calcium channel alpha, beta and alpha-2-delta subunits
Text: FIG. 9A illustrates temporal response curves for U-2OS cells (C1 and C2) and U-2OS cells transfected with voltage-gated calcium channel alpha, beta and alpha-2-delta subunits (C3 and C4). The temporal response curves presented in FIG. 9A represent data collected over an area of interest for the U-2OS cells in comparison to transfected U-2OS cells, in which the impact of cell response for each type of cell treated with the calcium ion channel blocker verapamil was monitored through a cycle of an initial state of resting potential, followed by conditions for depolarization of membrane potential, and return to resting potential.
Briefly, the sensor array device surface was soaked for 30 minutes with 70% ethanol in water, then rinsed with PBS before adding a solution of 0.1% poly-D-lysine, which was allowed to sit for two hours. The device was then rinsed twice with 200 μL of a cell culture medium, for example, McCoy's 5A modified medium with 10% fetal calf serum. After rinsing with the cell culture medium, the devices were ready for plating with a cell suspension.
Preparation of transfected cells was done using a cell suspension of 1×10^6 cells per mL. Mammalianized BacMam gene delivery particles encoding a mixture of voltage-gated calcium ion channel alpha, beta and alpha-2-delta subunits was added to the cell suspension to reconstitute functional channels. […]

[2] = tested on: HeLa cells; conditions: HeLa cells tested individually on separate device
Text: (§1) For the experiments for which data is presented in FIG. 13A through FIG. 13C, three distinct cell types were chosen to test for the ability of the instrument to discriminate cell type based on response to FCCP. To generate the data set comparing widely varying cell types, donor-derived primary human aortic smooth muscle (HASM) cells (HASMC; Gibco cat# C0075C), human cervical cancer cells (HeLa cells; ATCC catalogue number CRM CCL 2) and a mouse-derived […] cell line (MMM cells; ATCC catalogue number J774A.1) were selected for the study.
(§2) FIG. 13A through FIG. 13C are average background-subtracted temporal dose-responses curves for each type of cell line tested individually on separate devices. FIG. 13A is set of dose-response curves for HASM cells, FIG. 13B is a set of dose-response curves for HeLa cells, and FIG. 13C is a set of dose-response curves for MMM cells. For the data shown in FIG. 14A through FIG. 14C, a mixture of the cells were exposed to 100 μM FCCP and their responses recorded in order to understand whether or not the different cell types could be identified by their response to FCCP. FIG. 14A illustrates composite temporal dose-response curves for selected cells in a mixture of different cell types in which the cells were subjected to FCCP. FIG. 14B is an electroscopic image of the experiment of FIG. 14A taken at a time corresponding to frame 40 (2.7 seconds), in which squares within the cells indicate the pixels that were sampled for the data of FIG. 14A. FIG. 14C is the electroscopic image of FIG. 14B for which the squares within the cells in […] have removed to provide a clear image of the cells.
(§3) The sensor array devices used in experiments from which data for FIG. 13A though FIG. 14C was generated was a Chip 2 device of FIG. 3, selective for sensing hydrogen ion, and included a microwell array.

[3] = tested on: MMM cells; conditions: MMM cells tested individually on separate device
Text: as §1, §2, §3

[4] = tested on: HASM cells; conditions: HASM cells tested individually on separate device
Text: as §1, §2, §3

[5] = tested on: HEPG2 cells; conditions: 100 μM; seen for some cells (CHEPG1, CHEPG2), not all (CHEPG3)
Experimental: The HEPG2 cells were resuspended at 1×10^6 cells per mL and plated onto chips for overnight incubation in a cell culture incubator to allow the cells to adhere to the prepared surface of the chip.

[6] = tested on: U-2OS cells; conditions: series of concentration jumps
Text: FIG. 12A illustrates averaged background-subtracted temporal dose-response curves for U-2OS cells treated with FCCP. FIG. 12B illustrates averaged background-subtracted temporal dose-response curves for U-2OS cells pretreated with a nutrient solution containing oligomycin before being treated with FCCP.
Both Chip 1 and Chip 2 devices were ISFET devices selective for sensing hydrogen ion, and included a microwell array. […] The U-2OS cells were resuspended at 1×10^6 cells per mL and plated onto chips for overnight incubation in a cell culture incubator to allow the cells to adhere to the prepared surface of the chip. To test for dose-dependence of the FCCP treatment, cells were exposed to a series of concentration jumps during the experiment as indicated in FIGS. 12A and FIG. 12B. In FIG. 12A, experiments were carried out in the absence of oligomycin, and in 12B, the FCCP dose-response curve was generated in the presence of oligomycin.
The data in FIG. 12A and FIG. 12B are composed of averaged cellular responses from samples tested with FCCP.

| Compound | activity of blocker on temporal response to depolarizing stimulus [1] | temporal response to FCCP [2] | temporal response to FCCP [3] | temporal response to FCCP [4] | cellular response observed during application (electroscopic image) [5] | averaged cellular temporal response ([6]; absence of oligomycin) | averaged cellular temporal response ([6]; presence of oligomycin (pretreatment)) |
| --- | --- | --- | --- | --- | --- | --- | --- |
| COc1ccc(CCN(C)CCCC(C#N)(c2ccc(OC)c(OC)c2)C(C)C)cc1OC (stereo not shown) [verapamil] | selective activity of a blocker on cultures that express the target protein |  |  |  |  |  |  |
| N#CC(C#N)=NNc1ccc(OC(F)(F)F)cc1 [FCCP, carbonyl cyanide-4-(trifluoromethoxy)phenylhydrazone] |  | distinct kinetic and amplitude response | distinct kinetic and amplitude response | distinct kinetic and amplitude response | efflux of cellular contents | dose-dependent FCCP responses | dose-dependent FCCP responses |
